Measured values reported in the NIST ThermoML archive (doi:10.1021/je034188o).
Numbers after ± are expanded uncertainties.

Assay: cn = amount concentration of the nth substance listed, in mol/dm3
Conditions: 101 kPa, Liquid

C1COCCOCCOCCOCCOCCO1 [1,4,7,10,13,16-hexaoxacyclooctadecane] + ClC(Cl)(Cl)Cl
Conditions	mass density [kg/m3]
293.15 K, c1 = 0.06567	1586.34 ± 1.9
293.15 K, c1 = 0.09829	1582.87 ± 1.9
293.15 K, c1 = 0.1283	1579.71 ± 1.9
293.15 K, c1 = 0.1856	1573.71 ± 1.9
293.15 K, c1 = 0.2464	1567.44 ± 1.9
293.15 K, c1 = 0.3256	1559.42 ± 1.8
298.15 K, c1 = 0.06528	1576.94 ± 1.9
298.15 K, c1 = 0.09771	1573.63 ± 1.9
298.15 K, c1 = 0.1275	1570.6 ± 1.9
298.15 K, c1 = 0.1846	1564.86 ± 1.9
298.15 K, c1 = 0.2451	1558.88 ± 1.8
298.15 K, c1 = 0.3239	1551.22 ± 1.8
303.15 K, c1 = 0.0649	1567.64 ± 1.9
303.15 K, c1 = 0.09714	1564.39 ± 1.9
303.15 K, c1 = 0.1268	1561.42 ± 1.9
303.15 K, c1 = 0.1835	1555.75 ± 1.9
303.15 K, c1 = 0.2436	1549.77 ± 1.8
303.15 K, c1 = 0.322	1542.04 ± 1.8
308.15 K, c1 = 0.06453	1558.35 ± 1.9
308.15 K, c1 = 0.09662	1555.25 ± 1.9
308.15 K, c1 = 0.1261	1552.41 ± 1.9
308.15 K, c1 = 0.1827	1547.01 ± 1.8
308.15 K, c1 = 0.2426	1541.36 ± 1.8
308.15 K, c1 = 0.3209	1534.08 ± 1.8

C1COCCOCCOCCOCCOCCO1 [1,4,7,10,13,16-hexaoxacyclooctadecane] + O
Conditions	mass density [kg/m3]
293.15 K, c1 = 0.0406	999.92 ± 0.26
293.15 K, c1 = 0.07841	1001.5 ± 0.26
293.15 K, c1 = 0.1209	1003.25 ± 0.27
293.15 K, c1 = 0.1782	1005.57 ± 0.28
293.15 K, c1 = 0.2079	1006.75 ± 0.28
293.15 K, c1 = 0.2528	1008.52 ± 0.29
293.15 K, c1 = 0.3203	1011.12 ± 0.3
298.15 K, c1 = 0.04054	998.67 ± 0.26
298.15 K, c1 = 0.07831	1000.21 ± 0.26
298.15 K, c1 = 0.1207	1001.91 ± 0.27
298.15 K, c1 = 0.1779	1004.16 ± 0.27
298.15 K, c1 = 0.2076	1005.32 ± 0.28
298.15 K, c1 = 0.2524	1007.03 ± 0.28
298.15 K, c1 = 0.3198	1009.57 ± 0.29
303.15 K, c1 = 0.04049	997.39 ± 0.27
303.15 K, c1 = 0.0782	998.84 ± 0.26
303.15 K, c1 = 0.1205	1000.51 ± 0.26
303.15 K, c1 = 0.1777	1002.72 ± 0.27
303.15 K, c1 = 0.2073	1003.84 ± 0.27
303.15 K, c1 = 0.252	1005.51 ± 0.28
303.15 K, c1 = 0.3193	1008 ± 0.29
308.15 K, c1 = 0.04042	995.61 ± 0.27
308.15 K, c1 = 0.07806	997.09 ± 0.27
308.15 K, c1 = 0.1203	998.72 ± 0.26
308.15 K, c1 = 0.1774	1000.89 ± 0.26
308.15 K, c1 = 0.2069	1001.99 ± 0.27
308.15 K, c1 = 0.2515	1003.65 ± 0.27
308.15 K, c1 = 0.3187	1006.08 ± 0.28

ClC(Cl)(Cl)Cl [tetrachloromethane] + C1COCCOCCOCCOCCOCCO1
c2 = 0
Conditions	mass density [kg/m3]
293.15 K	1593.39 ± 1.9
298.15 K	1583.71 ± 1.9
303.15 K	1574.2 ± 1.9
308.15 K	1564.65 ± 1.9
